Results as given in US9963462B2 (priority 2015, dated 2018).

Assays:
[1] = target: SNAP-hSPR (sepiapterin reductase, SPR) (Homo sapiens, UniProt P35270); test: biochemical; assay type: binding; details: terbium labelled SNAP-hSPR / SSZ labelled SNAP-EGFP; read-out: hTR-FRET IC50
[2] = test system: BH4 levels in SK-N-BE (2) cells; test: SKN-N-BE (2) cellular assay, BH4 levels by LC-MS; assay type: cell-based; details: Homo sapiens, SKNBE2, read-out: SK-N-BE(2) IC50, SK-N-BE (2) cells, BH4 levels by LC-MS

SNAP-hSPR (sepiapterin reductase, SPR), sequence (P35270 whole entry): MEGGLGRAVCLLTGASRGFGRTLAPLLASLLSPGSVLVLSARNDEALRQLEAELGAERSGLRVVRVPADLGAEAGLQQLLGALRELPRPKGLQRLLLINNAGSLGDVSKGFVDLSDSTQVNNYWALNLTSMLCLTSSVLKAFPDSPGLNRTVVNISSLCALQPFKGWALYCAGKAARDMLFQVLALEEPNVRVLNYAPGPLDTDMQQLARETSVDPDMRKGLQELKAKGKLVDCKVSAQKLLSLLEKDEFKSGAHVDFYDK

| Compound | IC50 [1] [µM] | IC50 [2] [µM] |
| --- | --- | --- |
| Cc1c(C(=O)N(C)CCc2c[nH]c3ccccc23)cnn1-c1nc2c(c(=O)[nH]1)CCC2 [Q-0497] | 0.009 | 0.4 |
| Cc1c(C(=O)N2CCC(c3c[nH]c4ccccc34)CC2)cnn1-c1nc2c(c(=O)[nH]1)CCC2 [Q-0498] | 0.02 | 0.03 |
| Cc1c(C(=O)N2CCC(c3nc4ccccc4s3)CC2)cnn1-c1nc2c(c(=O)[nH]1)CCC2 [Q-0499] | 0.02 | 0.044 |
| Cc1c(C(=O)N(CC2COc3ccccc3O2)C(C)C)cnn1-c1nc2c(c(=O)[nH]1)CCC2 (centres unmarked) [Q-0500] | 0.03 | 0.097 |
| Cc1ccc(C2(C)CN(C(=O)c3cnn(-c4nc5c(c(=O)[nH]4)CCC5)c3C)CCO2)cc1 (centres unmarked) [Q-0501] | 0.009 | 0.2 |
| Cc1c(C(=O)N(CCc2ccccc2)CC(O)C(F)(F)F)cnn1-c1nc2c(c(=O)[nH]1)CCC2 (centres unmarked) [Q-0502] | 0.02 | 0.4 |
| Cc1c(C(=O)N2CCC(S(=O)(=O)c3ccccc3)CC2)cnn1-c1nc2c(c(=O)[nH]1)CCC2 [Q-0504] | 0.004 | 0.058 |
| Cc1c(C(=O)N2CCCCC2c2cccnc2)cnn1-c1nc2c(c(=O)[nH]1)CCC2 (centres unmarked) [Q-0505] | 0.004 | 0.1 |
| Cc1c(C(=O)N(C)Cc2ccc3ncccc3c2)cnn1-c1nc2c(c(=O)[nH]1)CCC2 [Q-0506] | 0.003 | 0.2 |
| Cc1c(C(=O)N2CCN(C(=O)OCc3ccccc3)C(C)C2)cnn1-c1nc2c(c(=O)[nH]1)CCC2 (centres unmarked) [Q-0507] | 0.01 | 0.2 |
| O=C(c1ccnc(-c2nc3c(c(=O)[nH]2)CCC3)c1)N1CCC(C(F)(F)F)CC1 [Q-0508] | 0.03 | 2 |
| Cc1c(C(=O)N2C3CCC2CC(O)(c2ccccc2)C3)cnn1-c1nc2c(c(=O)[nH]1)CCC2 (centres unmarked) [Q-0509] | 0.003 | 0.068 |
| Cc1c(C(=O)N2CCC(c3ccccc3)C2)cnn1-c1nc2c(c(=O)[nH]1)CCC2 (centres unmarked) [Q-0510] | 0.005 | 0.1 |
| O=C(c1cnn(-c2cc3ccsc3c(=O)[nH]2)c1)N1CCC(C(F)(F)F)CC1 [Q-0511, 5-{4-[4-(trifluoromethyl)piperidine-1-carbonyl]-1H-pyrazol-1-yl}-6H,7H-thieno[2,3-c]pyridin-7-one] | 0.003 | 0.3 |
| Cc1c(C(=O)N2C3CCC2CC(c2ccccc2)C3)cnn1-c1nc2c(c(=O)[nH]1)CCC2 (centres unmarked) [Q-0513] | 0.01 | 0.047 |
| COC1(c2ccccc2)CCN(C(=O)c2cnn(-c3nc4c(c(=O)[nH]3)CCC4)c2C)CC1 [Q-0514] | 0.007 | 0.057 |
| O=C(c1ccnc(-c2nc3ccsc3c(=O)[nH]2)c1)N1CCC(C(F)(F)F)CC1 [Q-0515] | 0.04 | 5.3 |
| O=C(c1cnn(-c2nc3ccsc3c(=O)[nH]2)c1)N1CCC(C(F)(F)F)CC1 [Q-0517] | 0.002 | 0.1 |
| COC1(C)CCN(C(=O)c2cnn(-c3nc4c(c(=O)[nH]3)CCC4)c2C)CC1 [Q-0520] | 0.003 | 0.2 |
| Cc1c(C(=O)N2CCC(OCC(F)(F)F)CC2)cnn1-c1nc2c(c(=O)[nH]1)CCC2 [Q-0521] | 0.008 | 0.1 |
| O=c1[nH]c(-c2cc(S(=O)(=O)N3CCC(C(F)(F)F)CC3)ccn2)nc2c1CCC2 [Q-0522] | 0.3 | 10 |
| N#CC1(c2ccccc2)CCN(C(=O)c2cnn(-c3nc4ccsc4c(=O)[nH]3)c2)CC1 [Q-0523] | 0.02 | 0.1 |

| Compound | IC50 [1] [µM] | IC50 [2] [µM] |
| --- | --- | --- |
| O=C(c1cnn(-c2nc3ccsc3c(=O)[nH]2)c1)N1CCC(S(=O)(=O)c2ccccc2)CC1 [Q-0524] | 0.004 | 1.1 |
| O=C(c1cnn(-c2nc3c(c(=O)[nH]2)CCC3)c1)N1CCC(C(F)(F)F)CC1 [Q-0526, 2-{4-[4-(trifluoromethyl)piperidine-1-carbonyl]-1H-pyrazol-1-yl}-3H,4H,5H,6H,7H-cyclopenta[d]pyrimidin-4-one] | 0.003 | 0.028 |
| O=C(c1cnn(-c2nc3ccsc3c(=O)[nH]2)c1)N1CCC(c2c[nH]c3ccccc23)CC1 [Q-0527] | 0.03 | 0.045 |
| O=C(c1cnn(-c2nc3ccsc3c(=O)[nH]2)c1)N1CCC(c2nc3ccccc3s2)CC1 [Q-0528] | 0.07 | 0.8 |
| O=c1[nH]c(-n2cc(OC3CCCC3)cn2)nc2c1CCC2 [Q-0529] | 0.01 | 0.1 |
| O=C(c1cnc(-c2nc3ccsc3c(=O)[nH]2)s1)N1CCC(C(F)(F)F)CC1 [Q-0530] | 0.03 | 1.8 |
| Cc1c(C(=O)N2CCC(C(C)(C)C#N)CC2)cnn1-c1nc2ccsc2c(=O)[nH]1 [Q-0531] | 0.004 | 0.062 |
| Cc1c(C(=O)Nc2ccccc2N2CCOCC2)cnn1-c1nc2c(c(=O)[nH]1)CCC2 [Q-0532] | 0.02 | 0.044 |
| N#CC1(c2ccccc2)CCN(C(=O)c2cnn(-c3nn4cccc4c(=O)[nH]3)c2)CC1 [Q-0534] | 0.003 | 0.1 |
| O=C(c1cnn(-c2nn3cccc3c(=O)[nH]2)c1)N1CCC(S(=O)(=O)c2ccccc2)CC1 [Q-0535] | 0.004 | 0.4 |
| O=C(c1cnn(-c2nn3cccc3c(=O)[nH]2)c1)N1CCC(c2c[nH]c3ccccc23)CC1 [Q-0536] | 0.007 | 0.059 |
| O=C(c1cnn(-c2nn3cccc3c(=O)[nH]2)c1)N1CCC(c2nc3ccccc3s2)CC1 [Q-0537] | 0.04 | 0.2 |
| Cc1c(C(=O)N2CCC(C(F)(F)F)CC2)cnn1-c1nn2cc(F)cc2c(=O)[nH]1 [Q-0543] | 0.003 | 0.4 |
| Cc1c(C(=O)N2CCN(c3ccccc3)CC2)cnn1-c1nc2c(c(=O)[nH]1)CCC2 [Q-0545] | 0.002 | 0.041 |
| O=C(c1cnn(-c2nc3c(c(=O)[nH]2)CCC3)c1C1CC1)N1CCC(c2nc3ccccc3s2)CC1 [Q-0546] | 0.009 | 0.084 |
| O=C(O)c1ccnc(-c2nc3ccsc3c(=O)[nH]2)c1 [Q-0547] | 2.3 | 10 |
| O=C(c1ccnc(-c2nc3ccsc3c(=O)[nH]2)c1)N1CCC(c2nc3ccccc3s2)CC1 [Q-0548] | 0.02 | 2.1 |
| Cc1c(C(=O)N2CC[C@@H](N(C)C(=O)OC(C)(C)C)C2)cnn1-c1nc2ccsc2c(=O)[nH]1 [Q-0549] | 0.004 | 0.4 |
| Cc1c(C(=O)N2CCC(C#N)(c3ccccc3)CC2)cnn1-c1nc2ccsc2c(=O)[nH]1 [Q-0550] | 0.002 | 0.1 |
| Cc1c(C(=O)N2CCC3(CCCN3Cc3ccccc3)C2)cnn1-c1nc2c(c(=O)[nH]1)CCC2 (centres unmarked) [Q-0551] | 0.006 | 0.5 |
| Cc1c(C(=O)N2CCC3(CCCCN3C(=O)OC(C)(C)C)C2)cnn1-c1nc2c(c(=O)[nH]1)CCC2 (centres unmarked) [Q-0552] | 0.007 | 0.038 |
| CC(C)(C#N)C1CCN(C(=O)c2cnn(-c3nc4c(c(=O)[nH]3)CCC4)c2C2CC2)CC1 [Q-0553] | 0.006 | 0.2 |

| Compound | IC50 [1] [µM] | IC50 [2] [µM] |
| --- | --- | --- |
| O=C(c1ccnc(-c2nc3ccsc3c(=O)[nH]2)c1)N1CCC(c2c[nH]c3ccccc23)CC1 [Q-0555] | 0.02 | 0.7 |
| Cc1c(C(=O)N2CCN3CCC[C@@H]3C2)cnn1-c1nc2ccsc2c(=O)[nH]1 [Q-0556] | 0.007 | 0.6 |
| Cc1c(C(=O)N2CCC3OCCCC3C2)cnn1-c1nc2ccsc2c(=O)[nH]1 (centres unmarked) [Q-0557] | 0.008 | 0.6 |
| O=C(O)c1ccnc(-c2nc3c(c(=O)[nH]2)CCC3)c1 [Q-0558] | 5 | 10 |
| Cc1c(C(=O)N2CCC(c3nc4ccccc4s3)CC2)cnn1-c1nc2ccsc2c(=O)[nH]1 [Q-0559] | 0.007 | 0.038 |
| Cc1c(C(=O)N2CCC(c3c[nH]c4ccccc34)CC2)cnn1-c1nc2ccsc2c(=O)[nH]1 [Q-0560] | 0.003 | 0.012 |
| Cc1c(C(=O)N2CCC(C#N)(c3ccccc3)CC2)cnn1-c1nc2sccc2c(=O)[nH]1 [Q-0561] | 0.004 | 0.011 |
| CCC1(C#N)CCN(C(=O)c2cnn(-c3nc4ccsc4c(=O)[nH]3)c2C)CC1 [Q-0562] | 0.004 | 0.2 |
| CCC1(C#N)CCN(C(=O)c2cnn(-c3nc4sccc4c(=O)[nH]3)c2C)CC1 [Q-0563] | 0.005 | 0.3 |
| Cc1c(C(=O)N2CCC(C(F)(F)F)CC2)ccnc1-c1nc2ccsc2c(=O)[nH]1 [Q-0564] | 0.2 | 4 |
| Cc1c(C(=O)N2CCC(c3c[nH]c4cc(F)ccc34)CC2)cnn1-c1nc2c(c(=O)[nH]1)CCC2 [Q-0565] | 0.006 | 0.011 |
| O=C(O)c1ccnc(-c2nc3sccc3c(=O)[nH]2)c1 [Q-0566] | 5 | 10 |
| Cc1c(C(=O)N2CCN(c3ccc(F)cc3F)CC2)cnn1-c1nc2c(c(=O)[nH]1)CCC2 [Q-0567] | 0.003 | 0.02 |
| Cc1c(C(=O)N2CC(CNC(=O)OC(C)(C)C)C2)cnn1-c1nc2c(c(=O)[nH]1)CCC2 [Q-0568] | 0.006 | 0.2 |
| Cc1c(C(=O)N2CC3COCC(C3)C2)cnn1-c1nc2c(c(=O)[nH]1)CCC2 [Q-0569] | 0.01 | 0.3 |
| Cc1c(C(=O)N2CCN(c3ccccc3Cl)CC2)cnn1-c1nc2c(c(=O)[nH]1)CCC2 [Q-0570] | 0.003 | 0.023 |
| Cc1c(C(=O)N2CCC(c3c[nH]c4ccccc34)CC2)cnn1-c1nc2sccc2c(=O)[nH]1 [Q-0573] | 0.003 | 0.035 |
| Cc1c(C(=O)N2CCC(c3nc4ccccc4s3)CC2)cnn1-c1nc2sccc2c(=O)[nH]1 [Q-0574] | 0.006 | 0.047 |
| Cc1c(C(=O)N2CCN3CCC[C@@H]3C2)cnn1-c1nc2c(c(=O)[nH]1)CCC2 [Q-0575] | 0.003 | 0.2 |
| Cc1c(C(=O)N2CCC3OCCCC3C2)cnn1-c1nc2c(c(=O)[nH]1)CCC2 (centres unmarked) [Q-0576] | 0.006 | 0.1 |
